# Experimental data as given in US6008258A (priority 1998, dated 1999).
# “Also recorded” adds a separate entry of the source. Where a name gives a salt, the structure may show the parent alone. Read-outs that look alike come from different tables or passages of the source.
# Key:
# [1] = molecular target: NMDA receptor, rat forebrain; conditions: used to calculate Ki; no footnote a; read-out: Kd (CGS19755), forebrain; cited from earlier work
# rat [2] = assay: Tail-flick test, intrathecal, cumulative dose-response and time course; conditions: for blockade of antinociceptive effect of l-methadone: naloxone 30 μg/rat + l-methadone 80 μg/rat IT; for antinociceptive (analgesic) effect in tail-flick test: up to cumulative 460 μg/rat
# rat [3] = assay: Formalin test (formalin-induced flinching), intrathecal drug
# [4] = tested on: NMDA-induced nociceptive behaviors; conditions: Okano et al.; cited from earlier work
# [5] = tested on: formalin-induced nociceptive behavior; conditions: pretreatment, literature, cited from earlier work
# morphine tolerance = conditions: Elliott et al.; cited from earlier work
# spinal cord neurons = conditions: Dickenson et al.; cited from earlier work
# [6] = tested on: NMDA receptor (noncompetitive MK-801 site), rat forebrain; format: binding
# [7] = tested on: NMDA receptor in rat cortical membranes; conditions: rat cortical membranes (Ebert); cited from earlier work
# [8] = tested on: NMDA-induced depolarization; conditions: in vitro (Ebert), cited from earlier work
# [9] = tested on: mu-type of the opioid receptor; conditions: Neil; cited from earlier work
# [10] = tested on: pain syndromes unresponsive to morphine; conditions: anecdotal case reports; cited from earlier work
# rat [11] = format: in vivo
# NMDA receptors = conditions: cited from earlier work
# NMDA-induced behaviors = assay: Intrathecal NMDA-induced nociceptive behaviors
# humans = humans (Olsen); cited from earlier work
# rat [12] = conditions: rats (Ingoglia); cited from earlier work
# mice = mice (Smits); cited from earlier work
molecule,measurement,setting,value
O=C(O)[C@@H]1C[C@H](CP(=O)(O)O)CCN1 [CGS19755],Kd,[1],24 nM
C=CCN1CC[C@]23c4c5ccc(O)c4O[C@H]2C(=O)CC[C@@]3(O)[C@H]1C5 [Naloxone],effect of naloxone alone on base-line tail-flick latencies / antinociception,rat [2]; 30 μg/rat spinal,did not affect base-line tail-flick latencies or produce an antinociceptive (analgesic) response
same,blockade of antinociceptive effect of l-methadone,rat [2],completely blocked
same,blockade of antinociceptive effect of l-methadone,rat [2]; listed as naloxone,completely blocked; also recorded: blocks; also recorded: effectively antagonized
same,duration of blockade of l-methadone effect,rat [2]; naloxone 30 μg/rat vs l-methadone 80 μg/rat,at least 75 minutes
same,reversal by naloxone of antinociceptive effect of d-methadone,rat [3]; naloxone 30 μg/rat + d-methadone 250 μg/rat IT,did not affect; also recorded: not reversed; also recorded: not blocked
3-amino-5-phosphonovaleric acid [APV],antagonism of NMDA-induced nociceptive behaviors,[4],antagonized
same,effect on nociceptive responses in formalin test,[5],reduces
COc1ccc2c(c1)[C@]13CCCC[C@@H]1[C@H](C2)N(C)CC3 [Dextromethorphan],effect on development of tolerance to morphine,morphine tolerance,attenuates and reverses
same,effect on wind up of spinal cord neurons,spinal cord neurons,suppresses
same,effect on nociceptive responses in formalin test,[5],attenuates nociceptive responses
same,effect on nociceptive responses in formalin test,[5]; listed as dextromethorphan,reduces
"CCC(=O)C(C[C@@H](C)N(C)C)(c1ccccc1)c1ccccc1 [l-Methadone, (R)-(-)-methadone]",time of peak analgesic effect,"rat [2]; 40 μg/rat spinal, time course study",15 min
same,"ED50, tail-flick test","rat [2]; IT, cumulative dose-response",15.6 ug/rat
same,antinociceptive (analgesic) effect in tail-flick test,rat [2]; intrathecal,dose-dependent antinociception
same,"ED50, tail-flick antinociception","rat [2]; intrathecal, 95% CI 7.0-29.8",15.6 μg/rat
same,approximately ED90 antinociceptive dose,"rat [2]; spinal, tail-flick test",~80 μg/rat
CNC1(c2ccccc2Cl)CCCCC1=O (centres unmarked) [Ketamine],effect on nociceptive responses in formalin test,[5],reduces
O=C1CC[C@@]2(O)[C@H]3Cc4ccc(O)c5c4[C@@]2(CCN3CC2CC2)[C@H]1O5 [Naltrexone],displacement of [3H]MK-801 binding,[6],did not displace
same,Ki,"[6]; read-out: [3H]MK-801 Ki, forebrain",> 100000 nM
CCC(=O)C(CC(C)N(C)C)(c1ccccc1)c1ccccc1 (racemic) [dl-Methadone],affinity for the NMDA receptor,[7],low μm affinity
same,effect on NMDA-induced depolarization,[8],reduced NMDA-induced depolarizations
same,effect on NMDA-induced depolarization,[8]; listed as racemic methadone,reduces NMDA-induced depolarization
same,binding to mu-type of the opioid receptor,[9],binds preferentially
same,management of pain syndromes unresponsive to morphine,[10],successful management
CN1CC[C@]23c4c5ccc(O)c4O[C@H]2[C@@H](O)C=C[C@H]3[C@H]1C5 [Morphine],Morphine ED50 (95% CI),"rat [11]; SALINE + MORPHINE, Day 2 (so in the source)",37.6 (28.5-56.7) ug/rat
same,Morphine ED50 (95% CI),"rat [11]; SALINE, Day 1",1.0 (0.5-1.8) ug/rat
same,binding to NMDA receptors,NMDA receptors,do not bind to NMDA receptors
O=C(O)[C@@H]1C[C@H]2C[C@@H](CP(=O)(O)O)CC[C@H]2CN1 [LY274614],effect on development of tolerance to morphine,morphine tolerance,attenuates and reverses
"CN[C@H](CC(=O)O)C(=O)O [NMDA, N-methyl-D-aspartate]",ED99 dose of NMDA,NMDA-induced behaviors; intrathecal,2.4 nmol/rat
same,NMDA ED50 (95% CI),NMDA-induced behaviors; pretreatment with saline or d-methadone 250 μg/rat,1.3 (1.0-1.6) nmol/rat IT
"CCC(=O)C(C[C@H](C)N(C)C)(c1ccccc1)c1ccccc1 [d-Methadone, (S)-(+)-methadone]",blockade of an ED99 dose of NMDA,"NMDA-induced behaviors; 250 μg (809 nmol)/rat, NMDA 2.4 nmol/rat",completely blocked
same,increase of NMDA ED50,NMDA-induced behaviors; d-methadone 250 μg/rat,more than 3 fold
same,analgesic potency vs l-methadone (less potent),humans,50 fold
same,activity following intraventricular administration,rat [12],inactive
same,development of morphine tolerance,"rat [11]; rat, in vivo",prevented the development of morphine tolerance
same,effect of d-methadone alone on morphine ED50,"rat [11]; rat, in vivo",did not alter
same,morphine ED50 in d-methadone+morphine group,"rat [11]; rat, in vivo",not significantly increased
same,opioid-like locomotor activity,mice,does not produce opioid-like locomotor activity
same,antinociceptive (analgesic) effect in tail-flick test,rat [2]; intrathecal,no antinociceptive effects
same,antinociceptive (analgesic) effect in tail-flick test,"rat [2]; intrathecal, listed as d-methadone",None of the rats that received d-methadone became an analgesic responder; also recorded: no analgesia
same,effect on phase 2 flinching vs saline,"rat [3]; 250 μg/rat IT, with or without naloxone 30 μg/rat",significantly reduce
same,decrease in phase 2 flinching,rat [3]; 320 μg/rat spinal,68%
same,"effect on number of flinches, phase 1","rat [3]; IT 32, 160, 320 μg/rat, 0-10 minutes",did not affect; also recorded: not during phase 1
same,"effect on flinching behavior, phase 2","rat [3]; IT 32, 160, 320 μg/rat, 10-60 minutes",dose-dependently reduces
"C[C@]12N[C@H](Cc3ccccc31)c1ccccc12 [MK-801, (+)-5 methyl-10,11-dihydro-5H-dibenzo[a,d]cyclo-hepten-5, 10-imine hydrogen maleate]",effect on development of tolerance to morphine,morphine tolerance,attenuates and reverses
same,effect on nociceptive responses in formalin test,[5],reduces
